Source: patent US11472808B2, “Substituted pyrrolo[1,2-c]pyrimidines as hepatitis B antiviral agents” (Enanta Pharmaceuticals, Inc., priority 2019, dated 2022)

Each molecule was assayed on HBV (assay: HepAD38 anti-HBV assay: reduction of viral product accumulation (virion DNA qPCR, HBsAg/HBeAg ELISA)). Conditions: Hepatitis B virus, 120 h; HepAD38 cells; concentration reducing viral product accumulation by 50% relative to no drug controls; harvest five days after compound addition; read-out: HepAD38 EC50.
Format: cell-based
Experimental: Methods: HepAD38 cells are maintained as previously reported (Ladner et al, Antimicrob. Agents Chemother. 1997, […], 1715). Briefly, cells are passaged upon attaining confluency in DMEM/F12 media in the presence of 10% FBS, Penn/Strep, 250 μg/mL G418, and 1 μg/ml tetracycline. Novel compounds are screened by first washing cells three times with PBS to remove tetracycline, and plating in 96 well plates at 35,000 cells/well. Compounds dissolved in DMSO are then diluted 1:200 into wells containing cells. Five days after compound addition, material is harvested for analysis. For an extended 8 day analysis, cells are plated and treated as described above, but media and compound are refreshed on d2 and d5 post initial treatment.
On harvest day, virion DNA is obtained by lysing with Sidestep Lysis and Stabilization Buffer and then quantified via quantitative real time PCR. Commercially available ELISA kits are used to quantitate the viral proteins HBsAg (Alpco) or HbeAg (US Biological) by following the manufacturer's recommended protocol after diluting samples to match the linear range of their respective assays. Irrespective of readout, compound concentrations that reduce viral product accumulation in the cell lysates or supernatants by 50% relative to no drug controls (EC50) are reported; EC50 ranges are as follows: A<0.1 μM; B 0.1-0.4 μM; C>0.4 μM.

Row | SMILES | EC50
1 | O=C(N[C@H]1CC2=C(c3ccn(C(F)F)n3)[C@H](c3ccc(F)cc3Cl)N=C(c3nccs3)N2C1)[C@@H]1CC1c1ccccn1 (relative stereo) [Example 312] | 100 to 400 nM
2 | C=CCOC[C@@]1(O)CC2=C(c3ccn(C(F)F)n3)[C@H](c3ccc(F)cc3Cl)N=C(c3nccs3)N2C1 (single isomer, unassigned) [Example 109] | 100 to 400 nM
3 | COC(=O)c1cccc(S(=O)(=O)N[C@H]2CC3=C(c4ccn(C(F)F)n4)[C@H](c4ccc(F)cc4Cl)N=C(c4nccs4)N3C2)c1 [Example 2] | < 100 nM
4 | COC(=O)c1ccccc1S(=O)(=O)N[C@H]1CC2=C(c3ccn(C(F)F)n3)[C@H](c3ccc(F)cc3Cl)N=C(c3nccs3)N2C1 [Example 4] | 100 to 400 nM
5 | O=C(O)c1cccc(S(=O)(=O)N[C@H]2CC3=C(c4ccn(C(F)F)n4)[C@H](c4ccc(F)cc4Cl)N=C(c4nccs4)N3C2)c1 [Example 5] | < 100 nM
6 | O=C(O)c1ccc(S(=O)(=O)N[C@H]2CC3=C(c4ccn(C(F)F)n4)[C@H](c4ccc(F)cc4Cl)N=C(c4nccs4)N3C2)cc1 [Example 6] | < 100 nM
7 | O=C(O)c1ccccc1S(=O)(=O)N[C@H]1CC2=C(c3ccn(C(F)F)n3)[C@H](c3ccc(F)cc3Cl)N=C(c3nccs3)N2C1 [Example 7] | > 400 nM
8 | COC(=O)CCS(=O)(=O)N[C@H]1CC2=C(c3ccn(C(F)F)n3)[C@H](c3ccc(F)cc3Cl)N=C(c3nccs3)N2C1 [Example 8] | 100 to 400 nM
9 | COC(=O)CCCS(=O)(=O)N[C@H]1CC2=C(c3ccn(C(F)F)n3)[C@H](c3ccc(F)cc3Cl)N=C(c3nccs3)N2C1 [Example 9] | < 100 nM
10 | O=C(O)CCS(=O)(=O)N[C@H]1CC2=C(c3ccn(C(F)F)n3)[C@H](c3ccc(F)cc3Cl)N=C(c3nccs3)N2C1 [Example 10] | > 400 nM
11 | O=C(O)CCCS(=O)(=O)N[C@H]1CC2=C(c3ccn(C(F)F)n3)[C@H](c3ccc(F)cc3Cl)N=C(c3nccs3)N2C1 [Example 11] | < 100 nM
12 | COC(=O)CS(=O)(=O)N[C@H]1CC2=C(c3ccn(C(F)F)n3)[C@H](c3ccc(F)cc3Cl)N=C(c3nccs3)N2C1 [Example 12] | 100 to 400 nM
13 | COC(=O)CCCCS(=O)(=O)N[C@H]1CC2=C(c3ccn(C(F)F)n3)[C@H](c3ccc(F)cc3Cl)N=C(c3nccs3)N2C1 [Example 13] | 100 to 400 nM
14 | COC(=O)[C@H]1C[C@H](S(=O)(=O)N[C@H]2CC3=C(c4ccn(C(F)F)n4)[C@H](c4ccc(F)cc4Cl)N=C(c4nccs4)N3C2)C1 [Example 14] | 100 to 400 nM
15 | COC(=O)[C@H]1C[C@@H](S(=O)(=O)N[C@H]2CC3=C(c4ccn(C(F)F)n4)[C@H](c4ccc(F)cc4Cl)N=C(c4nccs4)N3C2)C1 [Example 15] | 100 to 400 nM
16 | O=C(O)[C@H]1C[C@H](S(=O)(=O)N[C@H]2CC3=C(c4ccn(C(F)F)n4)[C@H](c4ccc(F)cc4Cl)N=C(c4nccs4)N3C2)C1 [Example 16] | > 400 nM
17 | O=C(O)[C@H]1C[C@@H](S(=O)(=O)N[C@H]2CC3=C(c4ccn(C(F)F)n4)[C@H](c4ccc(F)cc4Cl)N=C(c4nccs4)N3C2)C1 [Example 17] | 100 to 400 nM
18 | O=C(O)CS(=O)(=O)N[C@H]1CC2=C(c3ccn(C(F)F)n3)[C@H](c3ccc(F)cc3Cl)N=C(c3nccs3)N2C1 [Example 18] | > 400 nM
19 | O=C(O)CCCCS(=O)(=O)N[C@H]1CC2=C(c3ccn(C(F)F)n3)[C@H](c3ccc(F)cc3Cl)N=C(c3nccs3)N2C1 [Example 19] | 100 to 400 nM
20 | COC(=O)c1ccccc1CS(=O)(=O)N[C@H]1CC2=C(c3ccn(C(F)F)n3)[C@H](c3ccc(F)cc3Cl)N=C(c3nccs3)N2C1 [Example 22] | 100 to 400 nM
21 | O=C(O)c1ccccc1CS(=O)(=O)N[C@H]1CC2=C(c3ccn(C(F)F)n3)[C@H](c3ccc(F)cc3Cl)N=C(c3nccs3)N2C1 [Example 23] | 100 to 400 nM
22 | COC(=O)c1ccc(Cl)c(S(=O)(=O)N[C@H]2CC3=C(c4ccn(C(F)F)n4)[C@H](c4ccc(F)cc4Cl)N=C(c4nccs4)N3C2)c1 [Example 24] | 100 to 400 nM
23 | COC(=O)c1ccc(C)c(S(=O)(=O)N[C@H]2CC3=C(c4ccn(C(F)F)n4)[C@H](c4ccc(F)cc4Cl)N=C(c4nccs4)N3C2)c1 [Example 25] | 100 to 400 nM
